# Assay results from patent US7910593B2, “Water-soluble prodrugs” (Chugai Seiyaku Kabushiki Kaisha, priority 2004, dated 2011).
# Structures can show the parent of a compound that is named as a salt. Where two headings read alike, the source gives them in different places.
# What was measured:
# [1] = Test Example 3: solubility in distilled water; type: physicochemical
# From the text: The solubility of the water-soluble prodrugs obtained in the Examples (compounds 1A to 8A) in distilled water was compared to the solubility of (9S)-9-ethyl-9-hydroxy-1-pentyl-1H,12H-pyrano[3″,4″:6′,7′]indolizino[1′,2′:6,5]pyrido[4,3,2-de]quinazoline-10,13 (9H,15H)-dione (representative compound in Patent document 2: reference compound 1).
# [2] = system: human colon cancer cell line HCT116; assay: Test Example 4: antitumor effect in HCT116 tumor-bearing nude mice; type: in vivo, BALB/c nude mice; settings: once per week for three weeks
# Method: Antitumor effects were determined for representative examples of the group of compounds of the present invention. Tumor-bearing mice were generated by subcutaneous transplantation of human colon cancer cell line HCT116 obtained from American Type Culture Collection (Virginia, USA) into the right flank of BALB/c nude mice purchased from Charles River Japan, and used for determination of antitumor effects.
# After a one-week quarantine period, the purchased nude mice were subjected to subcutaneous transplantation of 5×10^6 HCT116 cells at their right flank. Mice with a tumor size reaching 200 mm^3 or so were subjected to the experiment.
# The compounds were dissolved in 1 mM citric bufferes saline, pH 4, and administered intravenously. The administration was carried out once per week for three weeks, for a total of three administrations. The antitumor effect was determined as tumor growth inhibition (TGI) using the following equation. Tumor growth inhibition (TGI) (%)={(1−mean tumor volume change in the drug-treated group/mean tumor volume change in the control group)×100} The results are shown in Table 6.
# [3] = Comparative Test Example 1: conversion of reference compound 2 in human sera; type: in vitro ADME; settings: FIG. 6
# Method: (§1) Compound 2A was incubated at 37° C. at a concentration of 50 μM in sera of humans, mice, monkeys, and dogs. Incubation was terminated at a given time (0, 30, 60, 120, and 360 minutes), and the samples were analyzed by HPLC after deproteinization treatments.
# (§2) Conditions for the HPLC analysis are as follows: • HPLC conditions • Column: Develosil C30-UG-3, 3 μm, 50×4.6 mm I.D • Column Temperature: constant temperature at approximately 25° C. • Mobile phase: A: 10 mM phosphate buffer (pH4.7) • B: acetonitrile • /B (min): 90/10(0)→90/10(0.4)→40/60(6)→2/98(8)→90/10(9)→90/10(15)
# (§3) Flow rate: 1.0 mL/min • Detection: photodiode array detector, detection wavelength 350 nm • Amount injected: 30 μL
# (§4) Similar to Examination 1, the percent changes of (9S)-9-ethyl-9-(tryptophyl-γ-glutamyloxy)-1-pentyl-1H,12H-pyrano[3″,4″:6′,7′]indolizino[1′,2′:6,5]pyrido[4,3,2-de]quinazoline-10,13(9H,15H)-dione [representative compound (Q) in Patent document 1: reference compound 2] being converted in the lactone form and the carboxylate form over time in human and mouse sera were determined.
# [4] = Comparative Test Example 1: conversion of reference compound 2 in mouse sera; type: in vitro ADME; settings: FIG. 7
# Method: as §1, §2, §3, §4
# [5] = distilled water, read-out: Solubility in distilled water
compound,measurement,setting,value
"CCCCCN1C=Nc2cccc3nc4c(c1c23)Cn1c-4cc2c(c1=O)COC(=O)[C@@]2(CC)OC(=O)CN(C)CCNC.Cl [Compound 1A, (9S)-9-Ethyl-9-{[methyl-(2-methylamino-ethyl)-amino]-acetoxy}-1-pentyl-1H,12H-pyrano[3″,4″:6′,7′]indolizino[1′,2′:6,5]pyrido[4,3,2-de]quinazoline-10,13(9H,15H)-dione hydrochloride]",solubility,[1]; [5],> 10000 µg/mL
"CCCCCN1C=Nc2cccc3nc4c(c1c23)Cn1c-4cc2c(c1=O)COC(=O)[C@@]2(CC)OC(=O)CN(C)CCN.Cl [Compound 3A, (9S)-9-{[(2-Amino-ethyl)-methyl-amino]-acetoxy}-9-ethyl-1-pentyl-1H,12H-pyrano[3″,4″:6′,7′]indolizino[1′,2′:6,5]pyrido[4,3,2-de]quinazoline-10,13(9H,15H)-dione hydrochloride]",solubility,[1]; [5],> 10000 µg/mL
"CCCCCN1C=Nc2cccc3nc4c(c1c23)Cn1c-4cc2c(c1=O)COC(=O)[C@@]2(CC)OC(=O)CN(C)C(=O)CNC.Cl [Compound 4A, (9S)-9-Ethyl-9-(sarcosyl-sarcosyloxy)-1-pentyl-1H,12H-pyrano[3″,4″:6′,7′]indolizino[1′,2′:6,5]pyrido[4,3,2-de]quinazoline-10,13(9H,15H)-dione hydrochloride]",solubility,[1]; [5],> 10000 µg/mL
"CC[C@@]1(OC(=O)CN(C)C(=O)CN)C(=O)OCc2c1cc1n(c2=O)Cc2cc3ccccc3nc2-1.Cl [Compound 5A, (aminoacetyl-methyl-amino)-acetic acid (S)-4-ethyl-3,13-dioxo-3,4,12,13-tetrahydro-1H-2-oxa-6,12a-diaza-dibenzo[b,h]fluoren-4-yl ester hydrochloride]",solubility,[1]; [5],> 10000 µg/mL
"CCCCCN1C=Nc2cccc3nc4c(c1c23)Cn1c-4cc2c(c1=O)COC(=O)[C@@]2(CC)OC(=O)OCCS(=O)(=O)C[C@H](N)C(=O)OC [Compound 6A, (9S)-9-{2-[(R-2-Amino-2-methoxycarbonyl)ethanesulfonyl]ethoxycarbonyloxy}-9-ethyl-1-pentyl-1H,12H-pyrano[3″,4″:6′,7′]indolizino[1′,2′:6,5]pyrido[4,3,2-de]quinazoline-10,13(9H,15H)-dione trifluoroacetic acid salt]",solubility,[1]; [5],> 10000 µg/mL
"CCCCCN1C=Nc2cccc3nc4c(c1c23)Cn1c-4cc2c(c1=O)COC(=O)[C@@]2(CC)OC(=O)OCCS(=O)(=O)CCN.Cl [Compound 8A, (9S)-9-[2-(2-Aminoethanesulfonyl)ethoxycarbonyloxy]-9-ethyl-1-pentyl-1H,12H-pyrano[3″,4″: 6′,7′]indolizino[1′,2′:6,5]pyrido[4,3,2-de]quinazoline-10,13(9H,15H)-dione hydrochloride]",solubility,[1]; [5],> 10000 µg/mL
same,TGI (%) on Day 21,[2]; 0.9 mg/kg intravenously,41%
same,TGI (%) on Day 21,[2]; 1.9 mg/kg intravenously,53%
same,TGI (%) on Day 21,[2]; 3.75 mg/kg intravenously,55%
same,TGI (%) on Day 21,[2]; 7.5 mg/kg intravenously,61%
same,TGI (%) on Day 21,[2]; 15 mg/kg intravenously,78%
same,TGI (%) on Day 21,[2]; 30 mg/kg intravenously,96%
same,TGI (%) on Day 21,[2]; 60 mg/kg intravenously,106%
"CCCCCN1C=Nc2cccc3nc4c(c1c23)Cn1c-4cc2c(c1=O)COC(=O)[C@]2(O)CC [Reference compound 1, (9S)-9-ethyl-9-hydroxy-1-pentyl-1H,12H-pyrano[3″,4″:6′,7′]indolizino[1′,2′:6,5]pyrido[4,3,2-de]quinazoline-10,13 (9H,15H)-dione, reference compound]",solubility,[1]; water,< 10 µg/mL
"CCCCCN1C=Nc2cccc3nc4c(c1c23)Cn1c-4cc2c(c1=O)COC(=O)[C@@]2(CC)OC(=O)CC[C@H](NC(=O)[C@@H](N)Cc1c[nH]c2ccccc12)C(=O)O [reference compound 2, (9S)-9-ethyl-9-(tryptophyl-γ-glutamyloxy)-1-pentyl-1H,12H-pyrano[3″,4″:6′,7′]indolizino[1′,2′:6,5]pyrido[4,3,2-de]quinazoline-10,13(9H,15H)-dione]",conversion rate and efficiency into the lactone form and the carboxylate form,[3],low
same,conversion rate and efficiency into the lactone form and the carboxylate form,[4],low
